Data as given in PubChem BioAssay (NCI).
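Protocol summary: plate cells (96-well), add compound at 5 concentrations, incubate 48 h, interpolate endpoints linearly. GI50 = concentration required for 50% inhibition of growth. TGI marks complete inhibition of growth.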

Experiments:
Assay in all cases: growth of human tumour cells (NCI), 48 h
CAKI-1 renal = system: CAKI-1 renal
HS 578T breast = system: HS 578T breast
HT29 colon = system: HT29 colon
KM12 colon = system: KM12 colon
NCI-H23 lung = system: NCI-H23 lung
OVCAR-3 ovarian = system: OVCAR-3 ovarian
OVCAR-5 ovarian = system: OVCAR-5 ovarian
T-47D breast = system: T-47D breast
UO-31 renal = system: UO-31 renal
EKVX NSCLC = system: EKVX NSCLC

Compound: CCOc1ccc(-c2nonc2NC(=O)c2cccc(C)c2)cc1OCC
- GI50 (CAKI-1 renal): 74 µM
- TGI (CAKI-1 renal): > 100 µM
- GI50 (HS 578T breast): > 100 µM
- TGI (HS 578T breast): > 100 µM
- GI50 (HT29 colon): > 100 µM
- TGI (HT29 colon): > 100 µM
- GI50 (KM12 colon): > 100 µM
- TGI (KM12 colon): > 100 µM
- GI50 (NCI-H23 lung): 35.8 µM
- TGI (NCI-H23 lung): > 100 µM
- GI50 (OVCAR-3 ovarian): > 100 µM
- TGI (OVCAR-3 ovarian): > 100 µM
- GI50 (OVCAR-5 ovarian): > 100 µM
- TGI (OVCAR-5 ovarian): > 100 µM
- GI50 (T-47D breast): > 100 µM
- TGI (T-47D breast): > 100 µM
- GI50 (UO-31 renal): > 100 µM
- TGI (UO-31 renal): > 100 µM

Compound: O=C(CO)CC(=O)C(=O)Nc1ccccc1
- TGI (EKVX NSCLC): > 100 µM
- TGI (HT29 colon): > 100 µM
- TGI (KM12 colon): > 100 µM
- TGI (NCI-H23 lung): > 100 µM
- TGI (OVCAR-3 ovarian): > 100 µM
- TGI (OVCAR-5 ovarian): > 100 µM
- TGI (UO-31 renal): > 100 µM

Compound: O=[N+]([O-])c1nccn1CC(O)CN1CC1 (stereo unspecified)
- TGI (CAKI-1 renal): > 100 µM
- TGI (EKVX NSCLC): > 100 µM
- TGI (HT29 colon): > 100 µM
- TGI (KM12 colon): > 100 µM
- TGI (NCI-H23 lung): > 100 µM
- TGI (OVCAR-3 ovarian): > 100 µM
- TGI (OVCAR-5 ovarian): > 100 µM
- TGI (UO-31 renal): > 100 µM

Compound: CC(=O)[CH-]C(=O)c1ccccc1.CC(=O)[CH-]C(=O)c1ccccc1.[Eu+3].[OH-].[OH3+]
- GI50 (CAKI-1 renal): > 100 µM
- TGI (CAKI-1 renal): > 100 µM
- GI50 (EKVX NSCLC): > 100 µM
- TGI (EKVX NSCLC): > 100 µM
- GI50 (HT29 colon): > 100 µM
- TGI (HT29 colon): > 100 µM
- GI50 (NCI-H23 lung): > 100 µM
- TGI (NCI-H23 lung): > 100 µM

Compound: Oc1cc(O)c2c(-c3c(O)c(-c4ccc(O)c(O)c4)[o+]c4cc(O)cc(O)c34)c(O)c(-c3ccc(O)c(O)c3)[o+]c2c1
- TGI (CAKI-1 renal): 95.6 µM
- TGI (EKVX NSCLC): 86.8 µM
- TGI (HT29 colon): > 100 µM
- TGI (KM12 colon): > 100 µM
- TGI (NCI-H23 lung): > 100 µM
- TGI (OVCAR-3 ovarian): 46.2 µM
- TGI (OVCAR-5 ovarian): > 100 µM
- TGI (UO-31 renal): 78.3 µM

Compound: CCC/C(=N/NC(=O)C(N)=O)C(CC)C(=O)CCC(=O)N(Cc1ccccc1)Cc1ccccc1 (stereo unspecified)
- TGI (CAKI-1 renal): > 100 µM
- TGI (EKVX NSCLC): > 100 µM
- TGI (HT29 colon): > 100 µM
- TGI (KM12 colon): > 100 µM
- TGI (NCI-H23 lung): > 100 µM
- TGI (OVCAR-3 ovarian): > 100 µM
- TGI (OVCAR-5 ovarian): > 100 µM
- TGI (UO-31 renal): > 100 µM

Compound: CCOc1ccccc1NC(=O)CC1SC(=Nc2ccc([N+](=O)[O-])cc2)NC1=O (stereo unspecified)
- TGI (EKVX NSCLC): 72.3 µM
- TGI (HT29 colon): 50.6 µM
- TGI (KM12 colon): 37 µM
- TGI (NCI-H23 lung): 35.2 µM
- TGI (OVCAR-3 ovarian): 31.6 µM
- TGI (OVCAR-5 ovarian): 78.7 µM
- TGI (UO-31 renal): 37.7 µM

Compound: Fc1ccc2c(c1)c(-c1nc(-c3c[nH]c4ncccc34)cs1)cn2CCCN1CCCCC1
- GI50 (HS 578T breast): 2.59 µM
- TGI (HS 578T breast): 7.69 µM
- GI50 (HT29 colon): 1.68 µM
- TGI (HT29 colon): 3.24 µM
- GI50 (NCI-H23 lung): 1.64 µM
- TGI (NCI-H23 lung): 3.13 µM
- GI50 (OVCAR-3 ovarian): 1.63 µM
- TGI (OVCAR-3 ovarian): 3.12 µM
- GI50 (OVCAR-5 ovarian): 1.61 µM
- TGI (OVCAR-5 ovarian): 3.1 µM
- GI50 (UO-31 renal): 1.28 µM
- TGI (UO-31 renal): 2.64 µM

Compound: N#CC(C(=O)CCC(=O)C(C#N)c1ccccc1)c1ccccc1 (stereo unspecified)
- TGI (CAKI-1 renal): > 100 µM
- TGI (EKVX NSCLC): > 100 µM
- TGI (HT29 colon): > 100 µM
- TGI (KM12 colon): > 100 µM
- TGI (NCI-H23 lung): > 100 µM
- TGI (OVCAR-3 ovarian): > 100 µM
- TGI (OVCAR-5 ovarian): > 100 µM
- TGI (UO-31 renal): > 100 µM

Compound: O=C1C(Cl)=C(Nc2cccc(Cl)c2)C(=O)N1Cc1ccccc1Cl
- GI50 (CAKI-1 renal): 1.68 µM
- TGI (CAKI-1 renal): 10.3 µM
- GI50 (EKVX NSCLC): 20.2 µM
- TGI (EKVX NSCLC): 50.9 µM
- GI50 (HS 578T breast): 9.4 µM
- TGI (HS 578T breast): 56.4 µM
- GI50 (HT29 colon): 5.45 µM
- TGI (HT29 colon): > 100 µM
- GI50 (KM12 colon): 10.7 µM
- TGI (KM12 colon): 49.6 µM
- GI50 (OVCAR-3 ovarian): 2.14 µM
- TGI (OVCAR-3 ovarian): 16.1 µM
- GI50 (UO-31 renal): 1.47 µM
- TGI (UO-31 renal): 5.01 µM

Compound: O=C1NC(=O)C2C(=O)NC(=O)C1C2(c1ccccc1)c1cc[nH]c1 (stereo unspecified)
- TGI (CAKI-1 renal): > 100 µM
- TGI (EKVX NSCLC): > 100 µM
- TGI (HT29 colon): > 100 µM
- TGI (KM12 colon): > 100 µM
- TGI (NCI-H23 lung): > 100 µM
- TGI (OVCAR-3 ovarian): > 100 µM
- TGI (OVCAR-5 ovarian): > 100 µM
- TGI (UO-31 renal): > 100 µM

Compound: CCC1(c2c(F)c(F)c(N)c(F)c2F)CCC(=O)NC1=O (stereo unspecified)
- TGI (CAKI-1 renal): > 100 µM
- TGI (EKVX NSCLC): > 100 µM
- TGI (HT29 colon): > 100 µM
- TGI (KM12 colon): > 100 µM
- TGI (NCI-H23 lung): > 100 µM
- TGI (OVCAR-3 ovarian): > 100 µM
- TGI (OVCAR-5 ovarian): > 100 µM
- TGI (UO-31 renal): > 100 µM

Compound: CC(=O)[CH-]C(=O)c1ccccc1.CC(=O)[CH-]C(=O)c1ccccc1.CC1(C)C2CCC1(C)C([O-])C2.CC1(C)C2CCC1(C)C([O-])C2.[Ti+4]
- GI50 (CAKI-1 renal): 51.4 µM
- TGI (CAKI-1 renal): > 100 µM
- GI50 (EKVX NSCLC): 69.6 µM
- TGI (EKVX NSCLC): > 100 µM
- GI50 (HT29 colon): 56.7 µM
- TGI (HT29 colon): > 100 µM
- GI50 (KM12 colon): 34.8 µM
- TGI (KM12 colon): > 100 µM
- GI50 (OVCAR-3 ovarian): 59.3 µM
- TGI (OVCAR-3 ovarian): > 100 µM
- GI50 (OVCAR-5 ovarian): > 100 µM
- TGI (OVCAR-5 ovarian): > 100 µM
- GI50 (UO-31 renal): 27.8 µM
- TGI (UO-31 renal): 93.8 µM

Compound: O=C1c2cc3c(cc2-c2c1c1ccc(Cl)cc1c(=O)n2CCCNCCO)OCO3
- GI50 (CAKI-1 renal): 0.0684 µM
- TGI (CAKI-1 renal): 2.29 µM
- GI50 (EKVX NSCLC): 1.63 µM
- TGI (EKVX NSCLC): 3.42 µM
- GI50 (HS 578T breast): 1.73 µM
- TGI (HS 578T breast): 4 µM
- GI50 (HT29 colon): 0.135 µM
- TGI (HT29 colon): 2.02 µM
- GI50 (KM12 colon): 1.17 µM
- TGI (KM12 colon): 2.61 µM
- GI50 (NCI-H23 lung): 0.0553 µM
- TGI (NCI-H23 lung): 1.43 µM
- GI50 (OVCAR-3 ovarian): 1.32 µM
- TGI (OVCAR-3 ovarian): 2.83 µM
- GI50 (OVCAR-5 ovarian): 1.71 µM
- TGI (OVCAR-5 ovarian): 3.71 µM
- GI50 (UO-31 renal): 0.0608 µM
- TGI (UO-31 renal): 1.87 µM

Compound: CC1(c2cccc3ccccc23)OC(=O)c2ccccc21 (stereo unspecified)
- TGI (CAKI-1 renal): 51 µM
- TGI (EKVX NSCLC): > 100 µM
- TGI (HT29 colon): 53.8 µM
- TGI (KM12 colon): > 100 µM
- TGI (NCI-H23 lung): 38.1 µM
- TGI (OVCAR-3 ovarian): 58.1 µM
- TGI (OVCAR-5 ovarian): > 100 µM
- TGI (UO-31 renal): 78.7 µM

Compound: O=C1C(=O)c2ccccc2C(O)=C1CC=C(Br)Br
- GI50 (CAKI-1 renal): 3.38 µM
- TGI (CAKI-1 renal): > 100 µM
- GI50 (HS 578T breast): 10.6 µM
- TGI (HS 578T breast): 56 µM
- GI50 (HT29 colon): 3.25 µM
- TGI (HT29 colon): 53.5 µM
- GI50 (KM12 colon): 3.14 µM
- TGI (KM12 colon): 64.9 µM
- GI50 (OVCAR-3 ovarian): 8.75 µM
- TGI (OVCAR-3 ovarian): 34.7 µM
- GI50 (OVCAR-5 ovarian): 21.8 µM
- TGI (OVCAR-5 ovarian): > 100 µM
- GI50 (T-47D breast): 15.4 µM
- TGI (T-47D breast): 81.2 µM
- GI50 (UO-31 renal): 6.13 µM
- TGI (UO-31 renal): 62.1 µM

Compound: COC(=O)C(=O)OC1(C(C)=O)CC2(c3ccccc3)OC1(c1ccccc1)c1ccccc12 (stereo unspecified)
- TGI (CAKI-1 renal): 39.9 µM
- TGI (EKVX NSCLC): 42 µM
- TGI (HT29 colon): 30.7 µM
- TGI (NCI-H23 lung): 33.3 µM
- TGI (OVCAR-3 ovarian): 27.9 µM
- TGI (OVCAR-5 ovarian): 63 µM
- TGI (UO-31 renal): 29.9 µM

Compound: Oc1ccccc1C=NCc1ccco1
- TGI (EKVX NSCLC): > 100 µM
- TGI (HT29 colon): > 100 µM
- TGI (KM12 colon): > 100 µM
- TGI (NCI-H23 lung): > 100 µM
- TGI (OVCAR-3 ovarian): > 100 µM
- TGI (OVCAR-5 ovarian): > 100 µM
- TGI (UO-31 renal): > 100 µM

Compound: BrC1=CC=C2NC=CC3=CC=NC1C32 (stereo unspecified)
- TGI (EKVX NSCLC): > 96.3 µM
- TGI (HT29 colon): > 66.2 µM
- TGI (KM12 colon): > 100 µM
- TGI (NCI-H23 lung): > 82.8 µM
- TGI (OVCAR-3 ovarian): 80.6 µM
- TGI (OVCAR-5 ovarian): > 75.5 µM
- TGI (UO-31 renal): 51.3 µM

Compound: N/C(=C\c1ccc(OCc2ccccc2)c(OCc2ccccc2)c1[N+](=O)[O-])C(=O)O
- TGI (EKVX NSCLC): > 100 µM
- TGI (HT29 colon): > 100 µM
- TGI (KM12 colon): > 100 µM
- TGI (NCI-H23 lung): > 100 µM
- TGI (OVCAR-3 ovarian): > 100 µM
- TGI (OVCAR-5 ovarian): > 100 µM
- TGI (UO-31 renal): > 100 µM

Compound: N#CC(C(=O)/C(=N/N)C(C#N)c1ccccc1)c1ccccc1 (stereo unspecified)
- TGI (CAKI-1 renal): > 100 µM
- TGI (EKVX NSCLC): > 100 µM
- TGI (HT29 colon): > 100 µM
- TGI (KM12 colon): > 100 µM
- TGI (NCI-H23 lung): > 100 µM
- TGI (OVCAR-3 ovarian): > 100 µM
- TGI (OVCAR-5 ovarian): > 100 µM
- TGI (UO-31 renal): > 100 µM
